Source: US9611251B2, “Substituted piperidine compounds and their use as orexin receptor modulators” (Janssen Pharmaceutica NV, priority 2013, dated 2017)
Structures can show the parent of a compound that is named as a salt. Where two headings read alike, the source gives them in different places.

Experiments:
[1] = target: human orexin 2 receptor (Homo sapiens (Human), UniProt O43614); test: Human orexin 2 receptor radioligand binding ([3H]-EMPA); settings: averages of 2-20 runs, read-out: hOX2 Ki
human orexin 2 receptor, sequence (O43614 whole entry): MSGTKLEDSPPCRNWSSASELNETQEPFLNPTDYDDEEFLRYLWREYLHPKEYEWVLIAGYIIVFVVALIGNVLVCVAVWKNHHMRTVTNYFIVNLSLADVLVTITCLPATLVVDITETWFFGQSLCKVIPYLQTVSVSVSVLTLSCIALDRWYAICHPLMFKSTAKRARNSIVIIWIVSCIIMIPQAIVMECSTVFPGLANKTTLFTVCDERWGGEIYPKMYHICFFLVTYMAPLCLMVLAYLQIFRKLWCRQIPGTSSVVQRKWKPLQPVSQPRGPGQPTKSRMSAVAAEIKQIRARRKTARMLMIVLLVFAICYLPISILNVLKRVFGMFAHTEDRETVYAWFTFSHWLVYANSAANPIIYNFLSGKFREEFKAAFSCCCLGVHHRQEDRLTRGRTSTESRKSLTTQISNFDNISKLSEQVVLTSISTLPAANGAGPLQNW
Procedure: (§1) Data are analyzed using pc-Sandy macro and graphed on Graphpad Prism 5. For analysis, each concentration point is averaged from triplicate values and the averaged values are plotted on Graphpad Prism. The IC50 was determined by applying the following equation (GraphPad Prism 5.0, SanDiego) for one site competition where X=log (concentration) and Y=specific binding. Top denotes the total [^3H]-(1-(5-(2-fluoro-phenyl)-2-methyl-thiazol-4-yl)-1-((S)-2-(5-phenyl-(1,3,4)oxadiazol-2-ylmethyl)-pyrrolidin-1-yl)-methanone) binding, bottom denotes the nonspecific [^3H]-(1-(5-(2-fluoro-phenyl)-2-methyl-thiazol-4-yl)-1-((S)-2-(5-phenyl-(1,3,4)oxadiazol-2-ylmethyl)-pyrrolidin-1-yl)-methanone) binding. Graphpad Prism calculates Ki value from IC50 and the pre-determined Kd values for [^3H]-(1-(5-(2-fluoro-phenyl)-2-methyl-thiazol-4-yl)-1-((S)-2-(5-phenyl-(1,3,4)oxadiazol-2-ylmethyl)-pyrrolidin-1-yl)-methanone) and [3H]-EMPA. The Ki for each compound is then uploaded into 3DX. Each run comprises individual compounds in triplicate.
Human Orexin 2 Receptor Radioligand Binding Studies
HEK293 stably expressing human orexin 2 receptor (Genebank accession number NM_001526) were grown to confluency in DMEM (Hyclone, cat #SH30022), 10% FBS, 1×Pen/Strep, 1× NaPyruvate, 10 mM HEPES, 600 ug/ml G418 media on 150 cm^2 tissue culture plates, washed with 5 mM EDTA in PBS (HyClone Dulbecco's Phosphate Buffered Saline 1× with Calcium and Magnesium, Cat #SH30264.01, hereafter referred to simply as PBS) and scraped into 50 ml tubes. After centrifugation (2K×G, 5 min at 4° C.), the supernatant was aspirated and the pellets frozen and stored at −80° C. […] Each cell pellet from a 15 cm plate was resuspended in 10 mL, stored on ice, and homogenized for 45 sec just prior to addition to the reactions. Competition binding experiments in 96 well polypropylene plates were performed using [^3H]-EMPA (Moraveck Corporation, specific activity=29.6 Ci/mmol), diluted to a 5 nM concentration in PBS (2 nM final concentration). […] The final concentration of DMSO in the reactions is equal to or less than 0.1%. Total and nonspecific binding was determined in the absence and presence of 10 μM almorexant. The total volume of each reaction is 200 μL (20 μL of diluted compounds, 80 μL of [^3H]-EMPA diluted in PBS and 100 μL of the cell suspension). […] The plates were washed 3 times by aspirating 30 ml PBS through the plates. Plates were dried in 55° C. oven for 60 min, scintillation fluid was added, and the radioactivity was counted on a Topcount (Packard).

[2] = target: rat orexin 1 receptor (Rattus norvegicus, UniProt P56718); test: Rat orexin 1 receptor radioligand binding
Procedure: as §1
Rat and Human Orexin 1 Receptor Radioligand Binding Studies
After centrifugation (2K×G, 5 min at 4° C.), the supernatant was aspirated and the pellets frozen and stored at −80° C. […] Each cell pellet from a 15 cm plate was resuspended in 10 mL, stored on ice, and homogenized for 45 sec prior to addition to the reactions. Competition binding experiments in 96 well polypropylene plates were performed using [^3H]-(1-(5-(2-fluoro-phenyl)-2-methyl-thiazol-4-yl)-1-((S)-2-(5-phenyl-(1,3,4)oxadiazol-2-ylmethyl)-pyrrolidin-1-yl)-methanone) (Moraveck Corporation, specific activity=35.3 Ci/mmol), diluted to a 10 nM concentration in PBS (4 nM final). […] The final concentration of DMSO in the reactions is equal to or less than 0.1%. Total and nonspecific binding was determined in the absence and presence of 10 μM almorexant. The total volume of each reaction is 200 μL (20 μL of diluted compounds, 80 μL of [^3H]-(1-(5-(2-fluoro-phenyl)-2-methyl-thiazol-4-yl)-1-((S)-2-(5-phenyl-(1,3,4)oxadiazol-2-ylmethyl)-pyrrolidin-1-yl)-methanone) diluted in PBS and 100 μL of the cell suspension). […] The plates were washed 3 times by aspirating 30 ml PBS through the plates. Plates were dried in 55° C. oven for 60 min, scintillation fluid was added, and the radioactivity was counted on a Topcount (Packard).

[3] = rat orexin 1 receptor radioligand binding, averages of 2-20 runs, read-out: rOX1 Ki

Structure (SMILES) | Ki [1] [nM] | Ki [2, 3] [nM] | Ki [2] [nM]
Cc1cc(N[C@@H]2CCCN(C(=O)c3cc(F)ccc3-c3ncccn3)[C@H]2C)nc(C(F)(F)F)n1 (racemic) [Example 9, (±)-trans-(5-fluoro-2-(pyrimidin-2-yl)phenyl)(2-methyl-3-((6-methyl-2-(trifluoromethyl)pyrimidin-4-yl)amino)piperidin-1-yl)methanone] | 2260 |  | 
C[C@H]1[C@H](Oc2ccc(C(F)(F)F)cn2)CCCN1C(=O)c1cccnc1-n1nccn1 [Example 153, (2-(2H-1,2,3-triazol-2-yl)pyridin-3-yl)((2S,3R)-2-methyl-3-((5-(trifluoromethyl)pyridin-2-yl)oxy)piperidin-1-yl)methanone] | > 10000 | 353 | 
Cc1cnc(C(=O)N2CCC[C@@H](Nc3nc4ccccc4o3)[C@@H]2C)c(-n2nccn2)c1 [Example 73, ((2S,3R)-3-(benzo[d]oxazol-2-ylamino)-2-methylpiperidin-1-yl)(5-methyl-3-(2H-1,2,3-triazol-2-yl)pyridin-2-yl)methanone] | 2270 | 8 | 
Cc1ccc(C(=O)N2CCC[C@@H](Nc3nc4ccccc4o3)[C@@H]2C)c(-n2nccn2)n1 [Example 75, ((2S,3R)-3-(benzo[d]oxazol-2-ylamino)-2-methylpiperidin-1-yl)(6-methyl-2-(2H-1,2,3-triazol-2-yl)pyridin-3-yl)methanone] | 8950 |  | 
Cc1ccc(-c2ncco2)c(C(=O)N2CCC[C@@H](Nc3ccc(C(F)(F)F)cn3)[C@@H]2C)n1 [Example 25, ((2S,3R)-2-methyl-3-((5-(trifluoromethyl)pyridin-2-yl)amino)piperidin-1-yl)(6-methyl-3-(oxazol-2-yl)pyridin-2-yl)methanone hydrochloride] |  |  | 12
Cc1ccc(C(=O)N2CCC[C@@H](Nc3cnc(Cl)cn3)[C@@H]2C)c(-n2nccn2)c1 (relative stereo) [Example 180, ((2S*,3R*)-3-((5-chloropyrazin-2-yl)amino)-2-methylpiperidin-1-yl)(4-methyl-2-(2H-1,2,3-triazol-2-yl)phenyl)methanone] | 1900 |  | 
C[C@H]1[C@H](Nc2ncc(C(F)(F)F)cn2)CCCN1C(=O)c1cccc(F)c1-c1ncccn1 (relative stereo) [Example 200, (3-fluoro-2-(pyrimidin-2-yl)phenyl)((2S*,3R*)-2-methyl-3-((5-(trifluoromethyl)pyrimidin-2-yl)amino)piperidin-1-yl)methanone] | 985 |  | 
Cc1ccc(C(=O)N2CCC[C@@H](Nc3ccc(C(F)(F)F)cn3)[C@@H]2C)c(-n2nccn2)c1 (racemic) [Example 13, (±)-trans-(4-methyl-2-(2H-1,2,3-triazol-2-yl)phenyl)(2-methyl-3-((5-(trifluoromethyl)pyridin-2-yl)amino)piperidin-1-yl)methanone] |  | 16 | 
C[C@H]1[C@H](Nc2ccc(Cl)cn2)CCCN1C(=O)c1ccccc1-n1nccn1 [Example 100, (2-(2H-1,2,3-triazol-2-yl)phenyl)((2S,3R)-3-((5-chloropyridin-2-yl)amino)-2-methylpiperidin-1-yl)methanone] | 190 |  | 
C[C@H]1[C@H](Oc2ccc(C(F)(F)F)cn2)CCCN1C(=O)c1ncccc1-c1ncccn1 (relative stereo) [Example 210, ((2S*,3R*)-2-methyl-3-((5-(trifluoromethyl)pyridin-2-yl)oxy)piperidin-1-yl)(3-(pyrimidin-2-yl)pyridin-2-yl)methanone] | 742 |  | 

Continued, in another order:

Ki [1] [nM] | Ki [2, 3] [nM] | Structure (SMILES) | Ki [2] [nM]
> 10000 | 1800 | Cc1ccc(C(=O)N2CCC[C@@H](Nc3nnc(C(F)(F)F)s3)[C@@H]2C)c(-n2nccn2)n1 (relative stereo) [Example 196, (6-methyl-2-(2H-1,2,3-triazol-2-yl)pyridin-3-yl)((2S*,3R*)-2-methyl-3-((5-(trifluoromethyl)-1,3,4-thiadiazol-2-yl)amino)piperidin-1-yl)methanone] | 
> 10000 | 504 | COc1ccc(C(=O)N2CCC[C@@H](Oc3ncc(C(F)(F)F)cn3)[C@@H]2C)c(-n2nccn2)c1 [Example 174, (4-methoxy-2-(2H-1,2,3-triazol-2-yl)phenyl)((2S,3R)-2-methyl-3-((5-(trifluoromethyl)pyrimidin-2-yl)oxy)piperidin-1-yl)methanone] | 
301 |  | Cc1ccc(-n2nccn2)c(C(=O)N2CCC[C@@H](Oc3ccc(C(F)(F)F)cn3)[C@@H]2C)n1 [Example 108, ((2S,3R)-2-methyl-3-((5-(trifluoromethyl)pyridin-2-yl)oxy)piperidin-1-yl)(6-methyl-3-(2H-1,2,3-triazol-2-yl)pyridin-2-yl)methanone] | 
> 10000 | 621 | Cc1cnc(-n2nccn2)c(C(=O)N2CCC[C@@H](Oc3ncc(Cl)cn3)[C@@H]2C)c1 [Example 162, ((2S,3R)-3-((5-chloropyrimidin-2-yl)oxy)-2-methylpiperidin-1-yl)(5-methyl-2-(2H-1,2,3-triazol-2-yl)pyridin-3-yl)methanone] | 
 | 357 | Cc1cnc(C(=O)N2CCC[C@@H](Nc3nnc(C(F)(F)F)s3)[C@@H]2C)c(-n2nccn2)c1 (relative stereo) [Example 195, ((2S*,3R*)-2-methyl-3-((5-(trifluoromethyl)-1,3,4-thiadiazol-2-yl)amino)piperidin-1-yl)(5-methyl-3-(2H-1,2,3-triazol-2-yl)pyridin-2-yl)methanone] | 
1500 |  | C[C@H]1[C@H](Nc2ncc(C(F)(F)F)cn2)CCCN1C(=O)c1ccc(F)cc1-c1ncccn1 (relative stereo) [Example 202, (4-fluoro-2-(pyrimidin-2-yl)phenyl)((2S*,3R*)-2-methyl-3-((5-(trifluoromethyl)pyrimidin-2-yl)amino)piperidin-1-yl)methanone] | 
1050 |  | Cc1cccc(C(=O)N2CCC[C@@H](Oc3ncc(Cl)cn3)[C@@H]2C)c1-n1nccn1 [Example 163, ((2S,3R)-3-((5-chloropyrimidin-2-yl)oxy)-2-methylpiperidin-1-yl)(3-methyl-2-(2H-1,2,3-triazol-2-yl)phenyl)methanone] | 
463 |  | Cc1ccc(-n2nccn2)c(C(=O)N2CCC[C@@H](Oc3ccc(C(F)(F)F)cn3)[C@@H]2C)n1 (racemic) [Example 109, (±)-trans-(2-methyl-3-((5-(trifluoromethyl)pyridin-2-yl)oxy)piperidin-1-yl)(6-methyl-3-(2H-1,2,3-triazol-2-yl)pyridin-2-yl)methanone] | 
243 |  | Cc1ccc(-c2ncccn2)c(C(=O)N2CCC[C@@H](Nc3cc(C)nc(C(F)(F)F)n3)[C@@H]2C)c1 (racemic) [Example 7, (±)-trans-(5-methyl-2-(pyrimidin-2-yl)phenyl)(2-methyl-3-((6-methyl-2-(trifluoromethyl)pyrimidin-4-yl)amino)piperidin-1-yl)methanone] | 
315 |  | CCOc1ccc(C)nc1C(=O)N1CCC[C@@H](Nc2ccc(C(F)(F)F)cn2)[C@@H]1C (relative stereo) [Example 194, (3-ethoxy-6-methylpyridin-2-yl)((2S*,3R*)-2-methyl-3-((5-(trifluoromethyl)pyridin-2-yl)amino)piperidin-1-yl)methanone] | 
385 |  | C[C@H]1[C@H](Nc2cnc(C(F)(F)F)cn2)CCCN1C(=O)c1cccc(F)c1-c1ncccn1 (relative stereo) [Example 207, (3-fluoro-2-(pyrimidin-2-yl)phenyl)((2S*,3R*)-2-methyl-3-((5-(trifluoromethyl)pyrazin-2-yl)amino)piperidin-1-yl)methanone] | 
